Series [1] concerns HUVECs. Description: Tube formation assay (anti-angiogenic activity). The settings on record: incubation 16 to 18 hours; for IC50: Homo sapiens, HUVEC. It counts as cell-based, human. An outline of the steps:
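HUVECs plated at 5000 cells/well on reduced growth factor basement membrane matrix, then exposed to compounds for 16 to 18 hours at 37°C. Cells stained with calcein-AM; tube networks imaged by confocal fluorescence microscopy and quantified.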

For series [2], the system named is MDA-MB-231 cells. The series can be described thus: Cytotoxicity assay (CellTiter-Glo 2.0) on MDA-MB-231 cells. The class given is cell-based, Human. The note with it: incubation 3 days; for IC50: Homo sapiens, 72 h. In outline: (§1)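 Cells in their own growth media were exposed to compounds for a line-specific incubation time. Remaining viability was read as ATP-dependent luminescence with CellTiter-Glo 2.0 after 10 min at room temperature. Relative IC50 was derived from the viability data.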

Series [3] relates to RD cells. The series can be described thus: Cytotoxicity assay (CellTiter-Glo 2.0) on RD cells. The class given is cell-based, Human. The settings on record: for IC50: Homo sapiens. In outline: as §1
(Cellular ATP, detected with luciferase, serves as a proxy for viable cell number.)

Series [4] has as its system EoL-1 cells. The series can be described thus: Cytotoxicity assay (CellTiter-Glo 2.0) on EoL-1 cells. It counts as cell-based, Human. The note with it: incubation 1 day; for IC50: Homo sapiens, EOL1, 24 h. An outline of the steps:
as §1

In series [5] the test system is 4T1 cells. The series can be described thus: Cytotoxicity assay (CellTiter-Glo 2.0) on 4T1 cells. It counts as cell-based, Mouse. The note with it: incubation 2 days; for IC50: Mus musculus, 48 h. An outline of the steps: as §1

In general, IC50 refers to the midpoint of a concentration-inhibition curve. Low values mean greater potency in that assay, high ones weaker potency in that assay. `CN(C)Cc1cccc(-n2nc(C(C)(C)C)cc2NC(=O)Nc2ccc(Oc3ccnc4c3OCC(=O)N4)cc2C(F)(F)F)c1` [Compound 048, 1-[5-tert-butyl-2-[3-(dimethylaminomethyl)phenyl]pyrazol-3-yl]-3-[4-[(3-oxo-4H-pyrido[3,2-b][1,4]oxazin-8-yl)oxy]-2-(trifluoromethyl)phenyl]urea]: the IC50 in series [1] is 0.1 to 0.5 µM; in series [2], 1 to 5 µM; in series [3] (48 h, 2 day-treatment), 5 to 10 µM; in series [3] (96 h, 4 day-treatment), 1 to 5 µM; in series [4], 0.001 to 0.01 µM; in series [5] it was 1 to 5 µM. Moreover, the Angiogenesis inhibition result in series [1] is given as “+++ (angiogenesis inhibition ≥ 80%)”. Also, the Cytotoxicity entry is “++ (50% ≤ cytotoxicity < 85%)” in series [2]; “++ (50% ≤ cytotoxicity < 85%)” in series [3] (2 day-treatment); “+++ (cytotoxicity ≥ 85%)” in series [3] (4 day-treatment); “++ (50% ≤ cytotoxicity < 85%)” in series [4]; “+++ (cytotoxicity ≥ 85%)” in series [5].
In the case of `CN(C)Cc1cccc(-n2nc(C(C)(C)C)cc2NC(=O)Nc2ccc(Oc3ccnc4c3CCC(=O)N4)cc2C(F)(F)F)c1` [Compound 028, 1-[5-tert-butyl-2-[3-[(dimethylamino)methyl]phenyl]pyrazol-3-yl]-3-[4-[(7-oxo-6,8-dihydro-5H-1,8-naphthyridin-4-yl)oxy]-2-(trifluoromethyl)phenyl]urea], the IC50 is less than 0.1 µM in series [1]; 1 to 5 µM in series [2]; 1 to 5 µM in series [3] (48 h, 2 day-treatment); 1 to 5 µM in series [3] (96 h, 4 day-treatment); 0.001 to 0.01 µM in series [4]; less than 1 µM in series [5]. For the same molecule, the Angiogenesis inhibition result in series [1] is “+++ (angiogenesis inhibition ≥ 80%)”. The Cytotoxicity entry in series [2] is given as “+++ (cytotoxicity ≥ 85%)”; in series [3] (2 day-treatment), “++ (50% ≤ cytotoxicity < 85%)”; in series [3] (4 day-treatment) it was “+++ (cytotoxicity ≥ 85%)”; in series [4], “++ (50% ≤ cytotoxicity < 85%)”; in series [5], “+++ (cytotoxicity ≥ 85%)”.
Take `CSc1cc(Oc2ccnc3c2OCC(=O)N3)ccc1NC(=O)Nc1cc(C(C)(C)C)nn1-c1ccc(CN(C)C)cc1` [Compound 033, 1-[5-tert-butyl-2-[4-[(dimethylamino)methyl]phenyl]pyrazol-3-yl]-3-[2-methylsulfanyl-4-[(3-oxo-4H-pyrido[3,2-b][1,4]oxazin-8-yl)oxy]phenyl]urea]: the IC50 is less than 0.1 µM in series [1]; 1 to 5 µM in series [2]; 1 to 5 µM in series [3] (48 h, 2 day-treatment); 1 to 5 µM in series [3] (96 h, 4 day-treatment); 0.001 to 0.01 µM in series [4]; less than 1 µM in series [5]. Also, the Angiogenesis inhibition result in series [1] is reported as “+++ (angiogenesis inhibition ≥ 80%)”. Further, the Cytotoxicity entry in series [2], in series [3] (2 day-treatment), in series [3] (4 day-treatment), in series [4] and in series [5] was “+++ (cytotoxicity ≥ 85%)” in each case.
Take `CSc1cc(Oc2ccnc3c2CCC(=O)N3)ccc1NC(=O)Nc1cncc(C(F)(F)F)c1` [Compound 005, 1-(2-(methylthio)-4-((7-oxo-5,6,7,8-tetrahydro-1,8-naphthyridin-4-yl)oxy)phenyl)-3-(5-(trifluoromethyl)pyridin-3-yl)urea]: the IC50 in series [1] was 0.1 to 0.5 µM; in series [2], 1 to 5 µM; in series [3] (48 h, 2 day-treatment) it was 1 to 5 µM; in series [3] (96 h, 4 day-treatment), 1 to 5 µM; in series [4], less than 0.001 µM; in series [5], 5 to 10 µM. For the same molecule, in series [1], the Angiogenesis inhibition result is listed as “++ (80% > angiogenesis inhibition ≥ 50%)”. Also, the Cytotoxicity result in series [2] is “++ (50% ≤ cytotoxicity < 85%)”; in series [3] (2 day-treatment), “+ (20 % ≤ cytotoxicity < 50%)”; in series [3] (4 day-treatment), “++ (50% ≤ cytotoxicity < 85%)”; in series [4] it was “+++ (cytotoxicity ≥ 85%)”; in series [5], “++ (50% ≤ cytotoxicity < 85%)”.
`CSc1cc(Oc2ccnc3c2OCC(=O)N3)ccc1NC(=O)Nc1cc(C(C)(C)C)nn1-c1ccc(CN2CCOCC2)cc1` [Compound 038, 1-[5-tert-butyl-2-[4-(morpholinomethyl)phenyl]pyrazol-3-yl]-3-[2-methylsulfanyl-4-[(3-oxo-4H-pyrido[3,2-b][1,4]oxazin-8-yl)oxy]phenyl]urea]: the IC50 in series [1] was in the range of 0.1 to 0.5 µM; in series [2] it was 1 to 5 µM; in series [3] (48 h, 2 day-treatment) it was 1 to 5 µM; in series [3] (96 h, 4 day-treatment) it was 1 to 5 µM; in series [4] it was 0.001 to 0.01 µM; in series [5], 1 to 5 µM. In addition, the Angiogenesis inhibition entry in series [1] is on record as “+++ (angiogenesis inhibition ≥ 80%)”. In addition, the Cytotoxicity entry in series [2] is recorded as “++ (50% ≤ cytotoxicity < 85%)”; in series [3] (2 day-treatment), “++ (50% ≤ cytotoxicity < 85%)”; in series [3] (4 day-treatment), “++ (50% ≤ cytotoxicity < 85%)”; in series [4], “++ (50% ≤ cytotoxicity < 85%)”; in series [5], “+++ (cytotoxicity ≥ 85%)”.
For `CSc1cc(Oc2ccnc3c2OCC(=O)N3)ccc1NC(=O)Nc1cc(C(C)(C)C)nn1-c1ccc(CCN(C)C)cc1` [Compound 051, 1-[5-tert-butyl-2-[4-[2-(dimethylamino)ethyl]phenyl]pyrazol-3-yl]-3-[2-methylsulfanyl-4-[(3-oxo-4H-pyrido[3,2-b][1,4]oxazin-8-yl)oxy]phenyl]urea], the IC50 was less than 0.1 µM in series [1]; 1 to 5 µM in series [2]; 1 to 5 µM in series [3] (48 h, 2 day-treatment); 1 to 5 µM in series [3] (96 h, 4 day-treatment); 0.001 to 0.01 µM in series [4]; 1 to 5 µM in series [5]. In series [1], the Angiogenesis inhibition result was “+++ (angiogenesis inhibition ≥ 80%)”. For the same molecule, the Cytotoxicity entry in series [2], in series [3] (2 day-treatment), in series [3] (4 day-treatment), in series [4] and in series [5] was “+++ (cytotoxicity ≥ 85%)” throughout.
For the molecule `CC(C)(C)c1cc(NC(=O)Nc2ccc(Oc3ccnc4c3OCC(=O)N4)cc2C(F)(F)F)on1` [Compound 037, 1-(3-tert-butylisoxazol-5-yl)-3-[4-[(3-oxo-4H-pyrido[3,2-b][1,4]oxazin-8-yl)oxy]-2-(trifluoromethyl)phenyl]urea], the IC50 in series [1] lay within 0.1 to 0.5 µM; in series [2], 1 to 5 µM; in series [3] (48 h, 2 day-treatment), 5 to 10 µM; in series [3] (96 h, 4 day-treatment), 1 to 5 µM; in series [4] it was 0.001 to 0.01 µM; in series [5], 1 to 5 µM. Moreover, the Angiogenesis inhibition result in series [1] is reported as “++ (80% > angiogenesis inhibition ≥ 50%)”. Besides, the Cytotoxicity result is reported as “++ (50% ≤ cytotoxicity < 85%)” in series [2]; “++ (50% ≤ cytotoxicity < 85%)” in series [3] (2 day-treatment); “++ (50% ≤ cytotoxicity < 85%)” in series [3] (4 day-treatment); “+++ (cytotoxicity ≥ 85%)” in series [4]; “+++ (cytotoxicity ≥ 85%)” in series [5].
With `Cc1ccc(-n2nc(C(C)(C)C)cc2NC(=O)Nc2ccc(Oc3ccnc4c3CCC(=O)N4)cc2C(F)(F)F)cc1` [Compound 010, 1-[5-tert-butyl-2-(p-tolyl)pyrazol-3-yl]-3-[4-[(7-oxo-6,8-dihydro-5H-1,8-naphthyridin-4-yl)oxy]-2-(trifluoromethyl)phenyl]urea], the IC50 was in the range of 0.1 to 0.5 µM in series [1]; 1 to 5 µM in series [2]; 5 to 10 µM in series [3] (48 h, 2 day-treatment); 5 to 10 µM in series [3] (96 h, 4 day-treatment); 0.01 to 0.1 µM in series [4]; 1 to 5 µM in series [5]. Besides, the Angiogenesis inhibition result in series [1] is listed as “+++ (angiogenesis inhibition ≥ 80%)”. For the same molecule, the Cytotoxicity entry in series [2] is “++ (50% ≤ cytotoxicity < 85%)”; in series [3] (2 day-treatment), “++ (50% ≤ cytotoxicity < 85%)”; in series [3] (4 day-treatment), “++ (50% ≤ cytotoxicity < 85%)”; in series [4] it was “++ (50% ≤ cytotoxicity < 85%)”; in series [5], “+++ (cytotoxicity ≥ 85%)”.
For the molecule `CC(C)(C)c1cc(NC(=O)Nc2ccc(Oc3ccnc4c3OCC(=O)N4)cc2C(F)(F)F)n(-c2ccc(CN3CCOCC3)cc2)n1` [Compound 043, 1-[5-tert-butyl-2-[4-(morpholinomethyl)phenyl]pyrazol-3-yl]-3-[4-[(3-oxo-4H-pyrido[3,2-b][1,4]oxazin-8-yl)oxy]-2-(trifluoromethyl)phenyl]urea], the IC50 in series [1] is 0.1 to 0.5 µM; in series [2], 5 to 10 µM; in series [3] (48 h, 2 day-treatment), not below 10 µM; in series [3] (96 h, 4 day-treatment), not below 10 µM; in series [4], 0.01 to 0.1 µM; in series [5] it was 1 to 5 µM. Also, in series [1], the Angiogenesis inhibition result is listed as “+++ (angiogenesis inhibition ≥ 80%)”. For the same molecule, the Cytotoxicity entry is on record as “++ (50% ≤ cytotoxicity < 85%)” in series [2]; “+ (20 % ≤ cytotoxicity < 50%)” in series [3] (2 day-treatment); “+ (20 % ≤ cytotoxicity < 50%)” in series [3] (4 day-treatment); “++ (50% ≤ cytotoxicity < 85%)” in series [4]; “+++ (cytotoxicity ≥ 85%)” in series [5].
Take `CC(C)(C)c1cnc(NC(=O)Nc2ccc(Oc3ccnc4c3CCC(=O)N4)c3ccccc23)s1` [Compound 007, 1-(5-(tert-butyl)thiazol-2-yl)-3-(4-((7-oxo-5,6,7,8-tetrahydro-1,8-naphthyridin-4-yl)oxy)naphthalen-1-yl)urea]: the IC50 was less than 0.1 µM in series [1]; 1 to 5 µM in series [2]; 5 to 10 µM in series [3] (48 h, 2 day-treatment); 1 to 5 µM in series [3] (96 h, 4 day-treatment); 0.01 to 0.1 µM in series [4]; 1 to 5 µM in series [5]. In series [1], the Angiogenesis inhibition result was “+++ (angiogenesis inhibition ≥ 80%)”. The Cytotoxicity result is “++ (50% ≤ cytotoxicity < 85%)” in series [2]; “+ (20 % ≤ cytotoxicity < 50%)” in series [3] (2 day-treatment); “++ (50% ≤ cytotoxicity < 85%)” in series [3] (4 day-treatment); “+++ (cytotoxicity ≥ 85%)” in series [4]; “+++ (cytotoxicity ≥ 85%)” in series [5].

The record behind these values is patent EP4289427A1, “DIHYDRO[1,8]NAPHTHYRIDIN-7-ONE AND PYRIDO[3,2-B][1,4]OXAZIN-3-ONE FOR USE IN TREATING CANCER, AND METASTASES IN PARTICULAR” (Anagenesis Biotechnologies, priority 2022, dated 2023).
